Data reported in the supplement of paper PMC10949913.

Experiments:
Conditions in all cases: 48 h
NCI-H295R [1] = assay: AC50 viability; higher = less potent
Procedure, shortened: (§1)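 AC50 and area under the curve values derive from fitted concentration-response curves, restricted to inhibitory or non-responding curve classes. The curves came from three adrenocortical carcinoma cell lines in 1,536-well plates, each receiving 23 nL of every library compound at 11 concentrations. Viability was read by CellTiter-Glo luminescence after 48 h, normalised per plate to vehicle and empty-well controls.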

CU-ACC2 [2] = assay: AC50 viability; higher = less potent
Procedure, shortened: as §1

NCI-H295R [3] = assay: area under concentration-response curve (viability) (AUC (a.u.)); higher = less active
Procedure, shortened: as §1

CU-ACC2 [4] = assay: as above
Procedure, shortened: as §1

CU-ACC1 = assay: as above
Procedure, shortened: as §1

Row | SMILES | AC50 viability (NCI-H295R [1]) [µM] | AC50 viability (CU-ACC2 [2]) [µM] | area under concentration-response curve (NCI-H295R [3]) | area under concentration-response curve (CU-ACC2 [4]) | area under concentration-response curve (CU-ACC1)
1 | CN1CCN(c2ccc(C(=O)Nc3n[nH]c4ccc(Cc5cc(F)cc(F)c5)cc34)c(NC3CCOCC3)c2)CC1 | 5.9 | 5.25 | 434 | 470 | 470
2 | CC(=O)O[C@@]12CO[C@@H]1C[C@H](O)[C@@]1(C)C(=O)[C@H](O)C3=C(C)[C@@H](OC(=O)[C@H](O)[C@@H](NC(=O)OC(C)(C)C)c4ccccc4)C[C@@](O)([C@@H](OC(=O)c4ccccc4)[C@H]21)C3(C)C | 0.417 | 20.9 | 270 | 334 | 302
3 | Cc1cnc(Nc2ccc(F)cc2Cl)nc1-c1c[nH]c(C(=O)N[C@H](CO)c2cccc(Cl)c2)c1 | 26.3 | 18.6 | 532 | 572 | 500
4 | C[C@H]1CNC(=O)c2cnn3ccc(nc23)N[C@H](C)c2cc(F)ccc2O1 | 2.35 | 6.61 | 454 | 475 | 523
5 | N[S+](=O)([O-])OC[C@@H]1C[C@@H](n2ccc3c(N[C@H]4CCc5ccccc54)ncnc32)C[C@@H]1O | 1.66 | 0.468 | 468 | 360 | 467
6 | O=C(c1ccc(/C=C/c2n[nH]c3ccccc23)cc1)N1CCNCC1 | 0.263 | 20.9 | 397 | 391 | 423
7 | CC[C@]12\C=C/CN3CC[C@]4([C@@H](N(C)C5=C4C=C(C(=C5)OC)[C@]6(CC7C[C@H](CN(C7)CC8=C6[NH]C9=C8C=CC=C9)C(C)(F)F)C(=O)OC)[C@](O)([C@@H]1OC(C)=O)C(=O)OC)[C@H]23 (stereo not given in full) | 1.48 | 5.9 | 394 | 533 | 468
8 | Cc1ccc(C(=O)OCc2ccc([C@@H](CN)C(=O)Nc3ccc4cnccc4c3)cc2)c(C)c1 | 12.9 | 9.11 | 534 | 591 | 507
9 | CC1(COc2ccc3c(c2)ncn3-c2ccc3cccc(N4CCC(N)CC4)c3n2)COC1 | 16.6 | 13.2 | 439 | 556 | 545
10 | NC(=O)Nc1cc(-c2cccc(F)c2)sc1C(=O)N[C@H]1CCCNC1 | 2.35 | 8.33 | 410 | 432 | 397
11 | COC(=O)[C@@]12OC[C@]34[C@H]([C@@H](O)[C@@H]1O)[C@@]1(C)CC(=O)C(O)=C(C)[C@@H]1C[C@H]3OC(=O)[C@H](OC(=O)/C=C(\C)C(C)C)[C@@H]24 | 0.263 | 0.0417 | 316 | 280 | 251
12 | Cn1ncc(Cl)c1-c1cc(C(=O)N[C@H](CN)Cc2ccc(F)c(F)c2)sc1Cl | 14.8 | 14.8 | 473 | 550 | 488
13 | CN1C(=O)c2sccc2N(C)c2nc(Nc3ccc([S+](N)(=O)[O-])cc3)ncc21 | 5.25 | 14.8 | 431 | 467 | 460
14 | N#Cc1ccc2c(c1)CN([S+](=O)([O-])c1cccs1)[C@H](Cc1ccccc1)CN2Cc1cnc[nH]1 | 8.33 | 0.833 | 485 | 405 | 350
15 | NCC(=O)NC1=CC(=CN=C1)\C2=N\N/3C(=O)\C=C(/N=C3S2)N4CCNCC4 | 0.00417 | 0.0934 | 143 | 254 | 269
16 | Clc1ccc(C(Cn2ccnc2)OCc2c(Cl)cccc2Cl)c(Cl)c1 (stereo not given) | 20.9 | 18.6 | 473 | 525 | 371
17 | Cc1c(O)cccc1C(=O)NC(CSc1ccccc1)C(O)CN1CC2CCCCC2CC1C(=O)NC(C)(C)C (stereo not given) | 23.5 | 20.9 | 561 | 550 | 406
18 | Cc1ccc(-n2nc(C(C)(C)C)cc2N/C(O)=N/Cc2cc(F)ccc2Oc2ccc3c(cnn3CCO)c2)cc1 | 33.2 | 20.9 | 522 | 549 | 518
19 | Cc1cc(O)c(-c2ccc([C@@H](C)CN)cc2)c2c1[nH]c(=O)c1sccc12 | 0.00105 | 0.148 | 128 | 223 | 203
20 | N=C(NCCCCCCNC(=N)NC(=N)Nc1ccc(Cl)cc1)NC(=N)Nc1ccc(Cl)cc1 | 14.8 | 23.5 | 443 | 573 | 511
21 | Cc1cc(Nc2ncc(Cl)c(Nc3ccccc3[S+](=O)([O-])C(C)C)n2)c(OC(C)C)cc1C1CCNCC1 | 5.9 | 16.6 | 419 | 495 | 439
22 | CC/C(=C(/c1ccc(O)cc1)c1ccc(OCCNC)cc1)c1ccccc1 | 7.42 | 9.34 | 359 | 403 | 393
23 | CN1C/C=C/CCOc2cccc(c2)-c2ccnc(n2)Nc2cccc(c2)C1 | 0.235 | 0.0525 | 164 | 165 | 208
24 | COC1=C(OCCCN2CCOCC2)C=C3N=CC=C(OC4=CC=C(C=C4F)\C5=C\N=C(\NC6=CC=C(F)C=C6)N(C)C5=O)C3=C1 | 8.33 | 18.6 | 400 | 528 | 474
25 | C[C@@H]1CC[C@@]2(CC[C@]3(C)\C(=C/C[C@@H]4[C@@]5(C)C[C@@H](O)[C@H](O)[C@@](C)(CO)[C@@H]5CC[C@@]34C)[C@@H]2[C@H]1C)C(O)=O | 2.35 | 1.18 | 354 | 410 | 371
26 | CN1CCC(C1CO)C2=C(O)C=C(O)C3=C2O\C(=C/C3=O)C4=CC=CC=C4Cl (stereo not given) | 3.32 | 0.833 | 422 | 417 | 431
27 | Cc1cc(Nc2cc(N3CCN(C)CC3)nc(Sc3ccc(NC(=O)C4CC4)cc3)n2)[nH]n1 | 18.6 | 20.9 | 459 | 569 | 534
28 | CC(=O)O/N=C1/C(=C2\C(=O)Nc3cc(Br)ccc32)Nc2ccccc21 | 13.2 | 9.34 | 525 | 561 | 492
